The source of these data is ChEMBL document CHEMBL1201862, “PubChem BioAssay data set” (2004).

The source made the active and inactive calls.

In general, AC50 refers to the concentration at which the activity in the assay is half-maximal.

The nature of one experiment: cells. In kind it is functional.
The target in a further experiment is T1, Protein skinhead-1 (Caenorhabditis elegans, UniProt P34707).
T1 sequence (P34707 whole entry): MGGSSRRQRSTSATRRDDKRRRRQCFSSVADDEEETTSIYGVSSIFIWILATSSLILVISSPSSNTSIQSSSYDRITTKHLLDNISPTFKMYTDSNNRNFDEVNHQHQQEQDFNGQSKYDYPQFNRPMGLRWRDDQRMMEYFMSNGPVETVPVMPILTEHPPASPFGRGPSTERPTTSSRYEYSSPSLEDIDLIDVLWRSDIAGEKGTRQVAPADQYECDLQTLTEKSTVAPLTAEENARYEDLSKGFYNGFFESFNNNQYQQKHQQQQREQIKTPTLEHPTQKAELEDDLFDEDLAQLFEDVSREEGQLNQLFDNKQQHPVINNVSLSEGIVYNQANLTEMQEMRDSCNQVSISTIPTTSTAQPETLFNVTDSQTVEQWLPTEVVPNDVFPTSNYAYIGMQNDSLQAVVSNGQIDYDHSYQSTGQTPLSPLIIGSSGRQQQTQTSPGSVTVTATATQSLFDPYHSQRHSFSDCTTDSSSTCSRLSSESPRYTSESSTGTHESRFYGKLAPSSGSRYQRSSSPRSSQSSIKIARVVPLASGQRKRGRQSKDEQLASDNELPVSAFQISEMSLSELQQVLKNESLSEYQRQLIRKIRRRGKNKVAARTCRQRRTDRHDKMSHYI
Format: functional.

Experiment [1] has as its target Eukaryotic translation initiation factor 4E (Mus musculus, UniProt P63073). Kind of experiment: blockers of eIF4G binding by eIF4E – biochemical, TR-FRET, dose response (AID 855).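 Also: potency for disrupting eIF4E binding to eIF4GI seen as loss of FRET.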 Format: functional.
Experiment [2] deals with T2, Corticotropin-releasing factor receptor 2/Corticotropin-releasing factor-binding protein (Homo sapiens, UniProt P24387+Q13324).
T2 sequence (Q13324 whole entry): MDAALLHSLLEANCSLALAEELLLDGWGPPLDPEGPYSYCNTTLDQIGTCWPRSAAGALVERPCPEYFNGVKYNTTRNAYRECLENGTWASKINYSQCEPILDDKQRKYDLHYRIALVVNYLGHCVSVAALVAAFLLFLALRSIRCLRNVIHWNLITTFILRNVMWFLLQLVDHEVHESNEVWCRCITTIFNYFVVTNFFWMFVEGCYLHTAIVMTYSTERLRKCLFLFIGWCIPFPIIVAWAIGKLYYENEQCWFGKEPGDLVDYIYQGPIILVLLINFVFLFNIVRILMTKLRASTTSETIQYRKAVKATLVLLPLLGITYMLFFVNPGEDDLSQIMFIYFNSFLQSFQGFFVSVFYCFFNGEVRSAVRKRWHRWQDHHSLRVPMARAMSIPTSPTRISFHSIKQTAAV
T2 sequence (P24387 whole entry): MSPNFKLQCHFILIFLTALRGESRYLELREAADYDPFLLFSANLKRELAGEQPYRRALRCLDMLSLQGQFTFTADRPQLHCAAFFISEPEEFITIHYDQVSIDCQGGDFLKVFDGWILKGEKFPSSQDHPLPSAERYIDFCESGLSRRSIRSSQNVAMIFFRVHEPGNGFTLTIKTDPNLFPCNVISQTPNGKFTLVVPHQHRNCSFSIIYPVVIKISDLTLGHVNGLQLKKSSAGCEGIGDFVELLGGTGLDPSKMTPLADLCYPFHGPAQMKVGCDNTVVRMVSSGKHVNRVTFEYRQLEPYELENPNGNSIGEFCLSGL
Kind of experiment: activators of CRF receptor 2 with binding protein – uHTS hits, confirmation (AID 602473). Format: functional. The following applies: read-out: EC50_Mean.

In experiment [3] the target is T2, Corticotropin-releasing factor receptor 2/Corticotropin-releasing factor-binding protein. Nature of the experiment: Dose Response confirmation of uHTS hits for small molecule antagonists of the CRF-binding protein and CRF-R2 receptor complex. Format: functional. The note with it: read-out: IC50_Mean.
The target of a further experiment is Large T antigen (Simian virus 40, UniProt P03070). In kind it is functional, Betapolyomavirus macacae.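 Also: Confirmatory-stage PubChem screen for compounds that inhibit SV40 T antigen.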
The target in experiment [4] is FAD-linked sulfhydryl oxidase ALR (Homo sapiens, UniProt P55789). Nature of the experiment: ALR-catalysed DTT oxidation blockers – biochemical, H2O2 detection, luminescence, cherry-pick, dose response (AID 493248).
A short description of experiment [5]: Luminescence Cell-Based Dose Response HTS to Identify Activators of Luciferase Translation or Activity in H4 […] Cells. [Related pubchem assays: 1829 (Project Summary), 1814 (Primary HTS)]. Format: functional.
The test system of the next experiment is H4. Nature of the experiment: Luminescence Cell-Based Dose Response HTS to Identify Activators of 5'UTR Stem-Loop Driven Prion Protein mRNA Translation in H4 Neuroglioblastoma Cells. [Related pubchem assays: 1829 (Project Summary), 1814 (Primary HTS)]. Format: functional. The following applies: Homo sapiens.
Experiment [6] addresses T3, Rac GTPase-activating protein 1 (Homo sapiens, UniProt Q9H0H5).
T3 sequence (Q9H0H5 whole entry): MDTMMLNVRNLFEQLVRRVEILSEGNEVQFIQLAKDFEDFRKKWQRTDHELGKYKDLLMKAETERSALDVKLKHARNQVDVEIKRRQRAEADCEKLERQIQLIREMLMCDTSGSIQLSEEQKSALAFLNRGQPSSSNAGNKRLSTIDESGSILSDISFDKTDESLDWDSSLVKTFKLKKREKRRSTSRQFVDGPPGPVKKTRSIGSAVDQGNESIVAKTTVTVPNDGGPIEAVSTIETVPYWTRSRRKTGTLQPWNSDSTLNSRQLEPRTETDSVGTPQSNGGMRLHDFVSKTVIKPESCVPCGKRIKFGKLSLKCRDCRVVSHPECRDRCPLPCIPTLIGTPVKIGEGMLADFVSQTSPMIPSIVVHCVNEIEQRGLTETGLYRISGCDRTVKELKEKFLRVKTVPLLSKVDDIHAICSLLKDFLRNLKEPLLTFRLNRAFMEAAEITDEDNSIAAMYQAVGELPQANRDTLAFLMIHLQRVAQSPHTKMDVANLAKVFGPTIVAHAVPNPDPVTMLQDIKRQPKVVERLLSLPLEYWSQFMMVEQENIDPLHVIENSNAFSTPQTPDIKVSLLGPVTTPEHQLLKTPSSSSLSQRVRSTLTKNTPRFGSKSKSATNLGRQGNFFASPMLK
Kind of experiment: blockers of MgcRacGAP-driven Rac1 GTP hydrolysis – biochemical, ADP Hunter fluorescence, primary and confirmatory, confirmation (AID 624330). In kind it is functional.

Sequence of Large T antigen (P03070 whole entry): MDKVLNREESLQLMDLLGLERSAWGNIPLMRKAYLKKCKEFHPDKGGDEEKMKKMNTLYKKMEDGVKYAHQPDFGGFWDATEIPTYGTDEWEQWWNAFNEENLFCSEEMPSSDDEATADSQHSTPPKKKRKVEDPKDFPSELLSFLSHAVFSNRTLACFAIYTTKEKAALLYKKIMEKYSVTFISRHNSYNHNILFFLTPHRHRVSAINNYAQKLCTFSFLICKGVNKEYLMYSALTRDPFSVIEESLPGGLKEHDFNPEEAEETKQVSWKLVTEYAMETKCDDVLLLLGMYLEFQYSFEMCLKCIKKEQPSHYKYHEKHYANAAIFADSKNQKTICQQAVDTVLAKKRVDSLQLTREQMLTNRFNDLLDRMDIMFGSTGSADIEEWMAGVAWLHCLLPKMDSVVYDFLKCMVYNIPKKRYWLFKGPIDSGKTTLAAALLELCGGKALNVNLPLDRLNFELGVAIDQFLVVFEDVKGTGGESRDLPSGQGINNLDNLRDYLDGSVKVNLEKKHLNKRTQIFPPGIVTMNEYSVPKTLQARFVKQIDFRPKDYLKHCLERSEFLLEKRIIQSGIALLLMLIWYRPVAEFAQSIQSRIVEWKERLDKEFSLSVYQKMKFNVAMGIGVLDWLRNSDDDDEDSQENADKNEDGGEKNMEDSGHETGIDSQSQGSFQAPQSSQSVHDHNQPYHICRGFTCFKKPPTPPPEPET
Sequence of Eukaryotic translation initiation factor 4E (P63073 whole entry): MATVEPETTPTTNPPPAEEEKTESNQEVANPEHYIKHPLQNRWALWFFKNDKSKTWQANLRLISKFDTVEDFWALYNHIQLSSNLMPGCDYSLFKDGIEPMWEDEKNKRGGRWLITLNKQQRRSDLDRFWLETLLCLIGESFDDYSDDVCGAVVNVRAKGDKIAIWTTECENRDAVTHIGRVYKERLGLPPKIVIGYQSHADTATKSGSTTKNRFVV
Sequence of FAD-linked sulfhydryl oxidase ALR (P55789 whole entry): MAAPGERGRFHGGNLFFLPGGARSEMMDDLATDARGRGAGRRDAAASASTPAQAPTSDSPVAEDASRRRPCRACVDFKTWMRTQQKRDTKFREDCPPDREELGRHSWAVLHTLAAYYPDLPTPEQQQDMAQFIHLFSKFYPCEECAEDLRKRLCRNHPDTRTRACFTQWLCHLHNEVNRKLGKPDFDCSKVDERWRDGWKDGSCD

Take `CN1CCC(O)(c2ccccc2)C(C(=O)c2ccccc2)C1` (stereo not given): in the experiment “cells”, the IC50 was 36.1 µM (active).

As to `CCOC(=O)COc1ccc(C2CC(C)=NN2c2ccccc2)cc1` (stereo not given), the IC50 in the experiment “cells” was 4.31 µM (active).

Take `Cc1ccc2c([N+](=O)[O-])c(C)ccc2n1`: at Protein skinhead-1, the IC50 is > 100 µM (inactive).

Turning to `O=C1CN(C(=O)c2cccs2)c2ccccc2N1`, the IC50 in [1] was > 64 µM (inactive).

On to `Cc1ccc(S(=O)(=O)Nc2cc(O)nc(SCC(=O)Nc3cccc(C(F)(F)F)c3)n2)cc1`, for which, in experiment [2], the EC50 is > 53 µM (inactive). In addition, the IC50 in experiment [3] was > 47.1 µM (inactive).

As for `CCOc1ccc(OCC)c(NC(=O)CSCC(=O)O)c1`, the IC50 at Protein skinhead-1 was > 100 µM (inactive).

For `COc1ccc(C(=O)ON=C(N)Cc2ccc(Cl)c(Cl)c2)cc1OC`, the EC50 in [2] is > 53 µM (inactive). Further, the IC50 in experiment [3] was 7.41 µM (active).

`CC1CN(C(=O)c2cccs2)CCN1C(=O)c1cccs1` (stereo not given): the IC50 on Protein skinhead-1 was > 100 µM (inactive).

`CCNc1nc(NC(C)CC)nc(Oc2ccc(OCC)nn2)n1` (stereo not given): in experiment [2], the EC50 was > 53 µM (inactive). Also, the IC50 in experiment [3] is > 47.1 µM (inactive).

For the compound `CCOC(=O)N1CCN(C(=O)CSc2nnc(CNC(=O)c3ccccc3F)o2)CC1`, in experiment [2], the EC50 was > 53 µM (inactive). Further, the IC50 in experiment [3] was > 47.1 µM (inactive).

As for `COC(=O)CC(=O)N1CCN(c2ccc(Cl)c(Cl)c2)CC1`, the IC50 in “cells” was 25.5 µM (active).

As for `CN(C)c1ccc(NC(=O)c2ccc(N3CCOCC3)nc2)cc1`, the IC50 on Large T antigen was 6.98 µM (active).

In the case of `Cc1cccc([N+]2=C3CCCCN3C(O)(c3cccs3)C2)c1` (stereo not given), in [2], the EC50 was > 53 µM (inactive). Moreover, the IC50 in experiment [3] was > 47.1 µM (inactive).

Take `O=C(CSc1nnc(-c2ccccc2)n1C1CCCCC1)Nc1ccc(S(=O)(=O)Nc2ccccn2)cc1`: the IC50 in experiment [1] is > 64 µM (inactive).

Consider `CCC(=O)c1ccc(OCC(=O)OCC(=O)c2cc(C)n(C3CC3)c2C)cc1`, for which the IC50 in the experiment “cells” was 9.8 µM (active).

As for `CC(C)(C)n1nnnc1C(c1ccncc1)N1CCN(c2ccc(O)cc2)CC1` (stereo not given), the AC50 in [4] is 3.48 µM (active). Moreover, the IC50 on Large T antigen is 13.9 µM (active).

As to `O=C1CCc2nc3ccccc3c(=O)n2N1`, in [2], the EC50 is > 53 µM (inactive). The IC50 in [3] was > 47.1 µM (inactive).

As for `O=C(c1ccccc1)c1cnc2cc3c(cc2c1O)OCCO3`, the IC50 at Protein skinhead-1 is > 100 µM (inactive).

Turning to `c1cc2c(nn1)CCc1nonc1-2`, on Protein skinhead-1, the IC50 is > 100 µM (inactive).

Regarding `O=C(CCn1nc(-c2ccccc2)ccc1=O)N1CCOCC1`, the EC50 in experiment [2] was > 53 µM (inactive). The IC50 in [3] was > 47.1 µM (inactive).

`O=C(NCCN1C(=O)C2C3C=CC(C3)C2C1=O)Nc1ccccc1O` (stereo not given): on Protein skinhead-1, the IC50 was > 100 µM (inactive).

`CCN(C(=O)c1ccco1)c1nc(-c2ccc(OC)cc2)cs1`: the IC50 at Protein skinhead-1 was > 100 µM (inactive).

Regarding `Cc1cc(N2CCOCC2)n2nc(C)c(-c3ccccc3)c2n1`, in experiment [1], the IC50 is > 64 µM (inactive).

For the compound `CCNC(S)=Nc1cc(OCC)c(N2CCOCC2)cc1OCC`, the IC50 on Large T antigen is > 100 µM (active).

Regarding `CN(C)c1ccc(NC(=O)CSc2nc3c(c(=O)[nH]2)CCCC3)cc1`, at Large T antigen, the IC50 is 5.87 µM (active).

`CN1CCN(c2ccc(NC(=O)c3ccc(Oc4ccccc4)cc3)cc2)CC1`: the IC50 on Protein skinhead-1 was 23.6 µM (active).

In the case of `CCO/C(O)=C1/C(C)=NC(SCC(=O)OC)=C(C#N)C1c1ccc(C(=O)OC)cc1` (stereo not given), the EC50 in experiment [2] is > 53 µM (inactive). Moreover, the IC50 in experiment [3] was < 0.368 µM (active).

Turning to `COc1cc(OC)cc(OC(=O)c2ccc3c(=O)n4c(nc3c2)CCC4)c1`, in the experiment “cells”, the IC50 was 9.14 µM (active).

Turning to `CC1C(=O)C(C)C(c2cc(Br)ccc2O)NC1c1cc(Br)ccc1O` (stereo not given), the EC50 in experiment [2] was > 53 µM (inactive). For the same compound, in experiment [3], the IC50 was > 47.1 µM (inactive).

Turning to `O=C(NCCO)c1cccc(-c2ccc3nncn3c2)c1`, the IC50 at Protein skinhead-1 was > 100 µM (inactive).

Regarding `NC(=O)c1ccccc1/N=C/c1ccc2ccccc2c1`, the EC50 in experiment [5] was 1.14 µM (active); with H4, 197 nM (active).

Turning to `Sc1nnc(-c2ccco2)n1/N=C/c1ccc(Br)s1`, the IC50 in [1] was > 64 µM (inactive).

In the case of `COc1cc(/C=N/Nc2nc(N3CCCC3)nc(N3CCCC3)n2)ccc1O`, the values for the IC50 (in experiment [6]; on Large T antigen) were 64.3 µM (active) and 15.2 µM (active), respectively.
